The source of these data is patent US20250186542A1, “COMPOSITION CONTAINING PEPTIDE COMPOUND FOR USE WITH SURFACTANT” (CHUGAI SEIYAKU KABUSHIKI KAISHA, priority 2022, published 2025).

SMILES strings stand for the structures. Values after ≈ are worked out from the molar mass of the structure shown. Bridge positions count the residues as written; N and C are the ends. Square brackets hold non-standard residues; d marks the D form. Peptide text beside a SMILES is read from it. * marks the point of attachment. ξ: configuration not given here. hPhe(3-Cl-4-CF3) = N[C@@H](CCc1ccc(C(F)(F)F)c(Cl)c1)C(=O)O; Phe(3-Cl) = N[C@@H](Cc1cccc(Cl)c1)C(=O)O; NMeCha = CN[C@@H](CC1CCCCC1)C(=O)O; NMeChg = CN[C@H](C(=O)O)C1CCCCC1; NMeF = CN[C@@H](Cc1ccccc1)C(=O)O; NMeD = CN[C@@H](CC(=O)O)C(=O)O; dNMeD = CN[C@H](CC(=O)O)C(=O)O; dNMeL = CN[C@H](CC(C)C)C(=O)O; ξIle = CC[C@H](C)C(N)C(=O)O; NMeS = CN[C@@H](CO)C(=O)O; Pip = O=C(O)[C@@H]1CCCCN1; Nle = CCCC[C@H](N)C(=O)O; Piperidide = C1CCN(*)CC1; Pyrrolidide = C1CCN(*)C1; dNMeA = CN[C@H](C)C(=O)O; Ac5c = NC1(C(=O)O)CCCC1; Sar = CNCC(=O)O; Propyl = CCC*

Data set [1] concerns Caco-2 cells. Kind of data set: Evaluation of Caco-2 membrane permeability. Type of data set: in vitro ADME. The note with it: HBSS pH 7.4 4% BSA basal, 180 minutes; for Without 5 mM lauroyl-L-carnitine Permeability coefficient (Caco-2 Papp): 10 µM compound in FaSSIF/HBSS pH 6.5 apical, no lauroyl-L-carnitine; for With 5 mM lauroyl-L-carnitine Permeability coefficient (Caco-2 Papp): 10 µM compound, 5 mM lauroyl-L-carnitine in FaSSIF/HBSS pH 6.5 apical. How it is done: (§1) In the above measurements, a Pgp inhibitor, such as Zosquidar, can be added to the FaSSIF/HBSS buffer and the HBSS buffer, respectively.
(§2) After step (step 1) and before step (step 2) of the above, pre-incubation can be performed by allowing each well to stand at 5% CO2, 37° C., 80 rpm for 20 to 24 hours.
(§3) After pre-incubation, the solution at the Basal side can be removed and washed, and a new solution of the same composition can be added. A Pgp inhibitor can also be added to the new solution. When the pre-incubation is performed, it is preferable that a DMEM solution (pH 7.4) containing 4% BSA is used instead of the HBSS buffer (pH 7.4).
(§4) In addition, as the concentration of the substance to be evaluated on the donor side used in the calculation of the permeability coefficient in step (step 3) above, the concentration when initially added can be used, or the concentration measured by collecting the solution at the Apical side before the start of pre-incubation or the start of shaking in the above step (step 2) can be used. In particular, when the preincubation is performed, it is preferable to use the concentration of the solution at the Apical side collected before pre-incubation.
In general terms: Passage across Caco-2 layers is used to estimate intestinal permeability.

Data set [2] can be described thus: Evaluation of solubility in 50 mM phosphate buffer (PPB, pH 6.5). Type of data set: physicochemical. How it is done:
To an excessive amount of a lyophilized powder of the compound, 50 mM phosphate buffer (PPB, pH 6.5) is added, and after shaking (37° C., 1 atm, 1800 rpm, for 22 to 24 hours), the mixture is filtered with a filter, and the compound concentration of the filtrate is measured by LC/MS/MS. Solubility (g/mL) is calculated from the measured compound concentration.
Solubility (μg/mL) was calculated from the measured compound concentration.

A short description of data set [3]: Evaluation of Caco-2 membrane permeability. Type of data set: in vitro ADME. The note with it: human. How it is done:
as §1, §2, §3, §4

Where [4] appears, read: 50 mM phosphate buffer pH 6.5, 37° C., 1 atm, 22 to 24 hours, read-out: PPB solubility.
Setting [5] is: Caco-2, With 5 mM lauroyl-L-carnitine Permeability coefficient (Caco-2 Papp).
Where [6] appears, read: Caco-2, Without 5 mM lauroyl-L-carnitine Permeability coefficient (Caco-2 Papp).

As usually defined, the solubility is the dissolved amount per volume that the medium holds. On to `CC[C@H](C)[C@@H]1NC(=O)[C@H](CC(C)C)N(C)C(=O)CC(C(=O)N2CCOCC2)N(C)C(=O)[C@H](C2CCCC2)N(C)C(=O)C2(CCCC2)NC(=O)[C@@H]2CCCN2C(=O)[C@H](CCc2ccc(C(F)(F)F)c(Cl)c2)NC(=O)CN(C)C(=O)[C@H](CC2CCCCC2)N(C)C(=O)[C@@H]2CCN2C(=O)[C@H](C)N(C)C1=O` (single isomer, unassigned) [Compound 2], for which, in data set [1], the “Without 5 mM lauroyl-L-carnitine Permeability coefficient (Caco-2 Papp)” value worked out at 0.0491 ×10⁻⁶ cm/s and the “With 5 mM lauroyl-L-carnitine Permeability coefficient (Caco-2 Papp)” value was found to be 0.265 ×10⁻⁶ cm/s. Further, in data set [2] (setting [4]), the solubility was found to be 1.18 µg/mL (≈ 0.81 µM).

Usually Papp A→B stands for the apparent permeability from the apical to the basolateral side of a cell layer. A higher Papp A→B goes with fast passage. Turning to `CC[C@H](C)[C@@H]1NC(=O)[C@H](CC(C)C)N(C)C(=O)CC(C(=O)N2CCOCC2)N(C)C(=O)[C@H](C2CCCC2)N(C)C(=O)C2(CCCC2)NC(=O)[C@@H]2CCCN2C(=O)[C@H](CCc2ccc(C(F)(F)F)c(Cl)c2)NC(=O)CN(C)C(=O)[C@H](Cc2ccc(C)cc2)N(CC)C(=O)[C@@H]2CCN2C(=O)[C@H](C)N(C)C1=O` (single isomer, unassigned) [Compound 3], the Papp A→B at 180 min in data set [3] (setting [5]) came to 0.366 ×10⁻⁶ cm/s; in data set [3] (setting [6]) it was 0.215 ×10⁻⁶ cm/s. Moreover, the solubility in data set [2] (pH 6.5) was found to be 1.81 µg/mL (≈ 1.22 µM).

Consider `CC[C@H](C)[C@@H]1NC(=O)[C@H](CC(C)C)N(C)C(=O)CC(C(=O)N2CCCCC2)N(C)C(=O)[C@H](C2CCCC2)N(C)C(=O)C2(CCCC2)NC(=O)[C@@H]2CCCN2C(=O)[C@H](CCc2ccc(C(F)(F)F)c(Cl)c2)NC(=O)CN(C)C(=O)[C@H](CC2CCCCC2)N(C)C(=O)[C@@H]2CCN2C(=O)[C@H](C)N(C)C1=O` (single isomer, unassigned) [Compound 8], for which, in data set [1], the “Without 5 mM lauroyl-L-carnitine Permeability coefficient (Caco-2 Papp)” value is 0.042 ×10⁻⁶ cm/s and the “With 5 mM lauroyl-L-carnitine Permeability coefficient (Caco-2 Papp)” value amounted to 0.154 ×10⁻⁶ cm/s. Also, the solubility in data set [2] (setting [4]) came out at 1.13 µg/mL (≈ 0.777 µM).

As for `CC[C@H](C)[C@@H]1NC(=O)C(CC(C)C)N(C)C(=O)CC(C(=O)N(C)C)N(C)C(=O)[C@H](C2CCCC2)N(C)C(=O)C(C)NC(=O)C(C)N(C)C(=O)[C@H](CCc2ccc(C(F)(F)F)c(Cl)c2)NC(=O)CN(C)C(=O)[C@H](CC2CCCCC2)N(C)C(=O)[C@@H]2CCN2C(=O)[C@H](C)N(C)C1=O` (single isomer, unassigned) [Compound 9], in data set [1], the “Without 5 mM lauroyl-L-carnitine Permeability coefficient (Caco-2 Papp)” value was found to be 0.00949 ×10⁻⁶ cm/s and the “With 5 mM lauroyl-L-carnitine Permeability coefficient (Caco-2 Papp)” value worked out at 0.0214 ×10⁻⁶ cm/s. In addition, the solubility in data set [2] (setting [4]) turned out to be 9.18 µg/mL (≈ 6.74 µM).

Turning to `CC[C@H](C)[C@@H]1NC(=O)[C@H](CC(C)C)N(C)C(=O)CC(C(=O)N2CCOCC2)N(C)C(=O)[C@H](C2CCCC2)N(C)C(=O)C2(CCCC2)NC(=O)[C@@H]2CCCN2C(=O)[C@H](CCc2ccc(C(F)(F)F)c(Cl)c2)NC(=O)CN(C)C(=O)[C@H](C2CCCC2)N(C)C(=O)[C@@H]2CCN2C(=O)[C@H](C)NC1=O` (single isomer, unassigned) [Compound 10], in data set [3] (Caco-2, 5 mM lauroyl-L-carnitine in FaSSIF/HBSS pH 6.5 apical, HBSS pH 7.4 4% BSA basal, 180 minutes), the Papp A→B at 180 min amounted to 0.014 ×10⁻⁶ cm/s. Moreover, the “Without 5 mM lauroyl-L-carnitine Permeability coefficient (Caco-2 Papp)” value in data set [1] was less than 0.00976 ×10⁻⁶ cm/s. For the same compound, the solubility in data set [2] (setting [4]) amounted to 101 µg/mL (≈ 71.6 µM).

For the compound `CCCCN1CC(=O)N(C)[C@@H](CC(C)C)C(=O)N[C@@H](Cc2ccc(C(=O)NS(C)(=O)=O)c(OC)c2)C(=O)N(C)[C@@H](CC(C)C)C(=O)N(C)[C@@H](CC(C)C)C(=O)NC(C(=O)N2CCCCC2)CC(=O)NC(CC(C)C)C(=O)N(C)[C@@H](Cc2ccccc2)C(=O)NC(C(C)C)C(=O)N(C)[C@@H](CC(C)C)C(=O)N[C@@H]([C@H](C)O)C1=O` (single isomer, unassigned) [Compound 11], the Papp A→B at 180 min is 0.0302 ×10⁻⁶ cm/s in data set [3] (setting [5]) and 0.00921 ×10⁻⁶ cm/s in data set [3] (setting [6]). In addition, the concentration in solution in data set [2] (pH 6.5) (solubility) came to 16.2 µg/mL (≈ 10.3 µM).

For `CC[C@@H](C)[C@H]1NC(=O)[C@@H](Cc2ccccc2)N(C)C(=O)CN(C)C(=O)C[C@@H](C(=O)N2CCCCC2)NC(=O)[C@@H](CC(C)C)N(C)C(=O)[C@@H](COC(C)(C)C)NC(=O)[C@@H](CC(C)C)N(C)C(=O)[C@@H](CCc2ccccc2)N(C)C(=O)CN(C)C(=O)[C@@H]([C@H](C)O)NC(=O)[C@@H](CC(C)C)N(C)C1=O` (stereo in doubt) [Compound 7], in data set [1], the “Without 5 mM lauroyl-L-carnitine Permeability coefficient (Caco-2 Papp)” value is less than 0.0944 ×10⁻⁶ cm/s and the “With 5 mM lauroyl-L-carnitine Permeability coefficient (Caco-2 Papp)” value worked out at 0.526 ×10⁻⁶ cm/s. Also, the solubility in data set [2] (setting [4]) is 5.76 µg/mL (≈ 4.11 µM).

As to `CC[C@H](C)C1NC(=O)[C@@H](CC(C)C)N(C)C(=O)C[C@H](C(=O)N2CCCCC2)N(C)C(=O)[C@H](C2CCCCC2)N(C)C(=O)C2(CCCC2)NC(=O)[C@@H]2CCCN2C(=O)[C@H](CCc2ccc(C(F)(F)F)c(Cl)c2)NC(=O)CN(C)C(=O)[C@H](CC2CCCCC2)N(C)C(=O)CN(C)C(=O)CN(C)C1=O` (some centres unmarked) [Compound 1] ([dNMeL][ξIle][Sar][Sar][NMeCha][Sar][hPhe(3-Cl-4-CF3)]P[Ac5c][NMeChg][dNMeD]-Piperidide; lactam N-11), in data set [1], the “Without 5 mM lauroyl-L-carnitine Permeability coefficient (Caco-2 Papp)” value came out at 0.0142 ×10⁻⁶ cm/s and the “With 5 mM lauroyl-L-carnitine Permeability coefficient (Caco-2 Papp)” value worked out at 0.253 ×10⁻⁶ cm/s. The solubility in data set [2] (setting [4]) came out at 1.12 µg/mL (≈ 0.777 µM).

As for `CCCC[C@@H]1NC(=O)[C@@H]2CCCN2C(=O)[C@H](CCCC)NC(=O)[C@@H](C)N(C)C(=O)C[C@@H](C(=O)N2CCCC2)N(C)C(=O)[C@@H]2CCCN2C(=O)[C@H]([C@@H](C)CC)NC(=O)[C@@H]2CCCCN2C(=O)[C@H](Cc2cccc(Cl)c2)NC(=O)[C@H](COCCC)N(C)C(=O)[C@H](Cc2ccccc2)N(C)C1=O` [Compound 5] ([dNMeA][Nle]P[Nle][NMeF][NMeS](Propyl)[Phe(3-Cl)][Pip]IP[NMeD]-Pyrrolidide; lactam N-11), in data set [1], the “Without 5 mM lauroyl-L-carnitine Permeability coefficient (Caco-2 Papp)” value was 0.00372 ×10⁻⁶ cm/s and the “With 5 mM lauroyl-L-carnitine Permeability coefficient (Caco-2 Papp)” value is 0.0264 ×10⁻⁶ cm/s.
